US20190365906A1, “RANDOM COPOLYMER THERAPEUTIC AGENT CARRIERS AND ASSEMBLIES THEREOF” (University of Washington through its Center for …, priority 2013, published 2019)

Test system: HeLa cells
Assay: Live-cell fluorescence microscopy of intracellular distribution of transferrin-polymer conjugates
Assay type: cell-based, human
Conditions: 1 hour at 37° C.
Protocol: The intracellular distribution of fluorescently labeled transferrin-polymer conjugates was evaluated in cells using live-cell fluorescence microscopy. Cells were seeded in chamber slides at a concentration of 5000 cells/well. After allowing the cells adhere for 18 hours the media was replaced with fresh media containing the appropriate concentration of the copolymer-transferrin conjugates. Thirty minutes prior to imaging Hoechst (5 μg/mL) was added to the media and allowed to incubate at 37° C. After this time, the media was carefully aspirated and replaced with PBS. Immediately prior to imaging individual wells were aspirated and then treated with 2 μL of a 10 mg/mL cell mask stock in 200 μL of ice cold PBS. After 3 minutes the PBS was removed and washed three times with additional ice cold PBS. The mediChamber slides were placed on a Live-Cell Fluorescence Microscope (Nikon Ti-E) equipped with an environmental control chamber. […] After image acquisition, image stacks were deconvolved using object-based measurement software, Velocity (Perkin Elmer), to remove out-of focus fluorescence for the identification of conjugate containing compartments. To deconvolved image stacks, point spread functions were calculated for the green, blue, and deep red channel and applied using 25 iterations to reach a near 100 percent confidence interval. […]

fluorescently (ALEXA 488) labeled Transferrin
intracellular localisation of fluorescence: strongly localized within endosomes/lysosomes
